Assay results as given in the NIST ThermoML archive (doi:10.1021/je9006037).
Numbers after ± are expanded uncertainties.

Experiment: refractive index (Na D-line) (dimensionless); xn = mol fraction of the nth substance listed
Conditions: 101 kPa, Liquid

CCn1cc[n+](C)c1.O=S(=O)([O-])C(F)(F)F [1-ethyl-3-methylimidazolium trifluoromethanesulfonate] + CC(C)O
refractive index
Conditions	288.15 K	298.15 K	308.15 K	318.15 K	328.15 K	338.15 K
x1 = 0.04997	1.38697 ± 0.0012	1.38304 ± 0.0012	1.37919 ± 0.0012	1.3753 ± 0.0012	1.37148 ± 0.0012	1.36735 ± 0.0012
x1 = 0.09937	1.39302 ± 0.0012	1.38935 ± 0.0012	1.38578 ± 0.0012	1.38236 ± 0.0012	1.37896 ± 0.0012	1.37487 ± 0.0012
x1 = 0.1504	1.39853 ± 0.0012	1.39494 ± 0.0012	1.39186 ± 0.0012	1.38861 ± 0.0012	1.38506 ± 0.0012	1.38103 ± 0.0012
x1 = 0.1995	1.40326 ± 0.0012	1.39957 ± 0.0012	1.39662 ± 0.0012	1.39356 ± 0.0012	1.39032 ± 0.0012	1.38662 ± 0.0012
x1 = 0.2508	1.40739 ± 0.0013	1.40382 ± 0.0013	1.40089 ± 0.0013	1.39817 ± 0.0013	1.39474 ± 0.0013	1.3916 ± 0.0013
x1 = 0.2997	1.411 ± 0.0013	1.4074 ± 0.0013	1.40439 ± 0.0013	1.40147 ± 0.0013	1.3983 ± 0.0013	1.39544 ± 0.0013
x1 = 0.3988	1.41689 ± 0.0013	1.41365 ± 0.0013	1.41071 ± 0.0013	1.40758 ± 0.0013	1.40457 ± 0.0013	1.40189 ± 0.0013
x1 = 0.5014	1.42209 ± 0.0013	1.41872 ± 0.0013	1.41564 ± 0.0013	1.41261 ± 0.0013	1.40972 ± 0.0013	1.4068 ± 0.0013
x1 = 0.6012	1.42562 ± 0.0013	1.42259 ± 0.0013	1.41956 ± 0.0013	1.41667 ± 0.0013	1.41379 ± 0.0013	1.41098 ± 0.0013
x1 = 0.6972	1.42868 ± 0.0013	1.42574 ± 0.0013	1.42285 ± 0.0013	1.41998 ± 0.0013	1.41714 ± 0.0013	1.41431 ± 0.0013
x1 = 0.7978	1.43159 ± 0.0013	1.42861 ± 0.0013	1.42579 ± 0.0013	1.42298 ± 0.0013	1.42017 ± 0.0013	1.41738 ± 0.0013
x1 = 0.8342	1.43251 ± 0.0013	1.42965 ± 0.0013	1.42678 ± 0.0013	1.42395 ± 0.0013	1.42115 ± 0.0013	1.41837 ± 0.0013
x1 = 0.8905	1.43379 ± 0.0013	1.43098 ± 0.0013	1.42818 ± 0.0013	1.42541 ± 0.0013	1.42264 ± 0.0013	1.41986 ± 0.0013
x1 = 1	1.43599 ± 0.0013	1.43322 ± 0.0013	1.4304 ± 0.0013	1.42767 ± 0.0013	1.42494 ± 0.0013	1.42222 ± 0.0013

CCn1cc[n+](C)c1.O=S(=O)([O-])C(F)(F)F [1-ethyl-3-methylimidazolium trifluoromethanesulfonate] + CCCO
refractive index
Conditions	288.15 K	298.15 K	308.15 K	318.15 K	328.15 K	338.15 K
x1 = 0.05007	1.39381 ± 0.0012	1.38991 ± 0.0012	1.38613 ± 0.0012	1.38243 ± 0.0012	1.37892 ± 0.0012	1.37545 ± 0.0012
x1 = 0.1013	1.39933 ± 0.0013	1.39557 ± 0.0013	1.39221 ± 0.0013	1.38877 ± 0.0013	1.38613 ± 0.0013	1.38306 ± 0.0013
x1 = 0.1503	1.40371 ± 0.0013	1.4001 ± 0.0013	1.3968 ± 0.0013	1.3938 ± 0.0013	1.39112 ± 0.0013	1.38856 ± 0.0013
x1 = 0.2001	1.40743 ± 0.0013	1.404 ± 0.0013	1.4009 ± 0.0013	1.39795 ± 0.0013	1.39522 ± 0.0013	1.39266 ± 0.0013
x1 = 0.2497	1.41088 ± 0.0013	1.40747 ± 0.0013	1.40434 ± 0.0013	1.40127 ± 0.0013	1.39872 ± 0.0013	1.39631 ± 0.0013
x1 = 0.3008	1.41391 ± 0.0013	1.41061 ± 0.0013	1.40747 ± 0.0013	1.40445 ± 0.0013	1.40173 ± 0.0013	1.39926 ± 0.0013
x1 = 0.3996	1.41854 ± 0.0013	1.41537 ± 0.0013	1.41218 ± 0.0013	1.40923 ± 0.0013	1.40634 ± 0.0013	1.40392 ± 0.0013
x1 = 0.4965	1.42297 ± 0.0013	1.41986 ± 0.0013	1.41681 ± 0.0013	1.41376 ± 0.0013	1.41082 ± 0.0013	1.4078 ± 0.0013
x1 = 0.602	1.42671 ± 0.0013	1.42372 ± 0.0013	1.42062 ± 0.0013	1.41752 ± 0.0013	1.41447 ± 0.0013	1.41163 ± 0.0013
x1 = 0.7043	1.42943 ± 0.0013	1.42647 ± 0.0013	1.42347 ± 0.0013	1.42076 ± 0.0013	1.41793 ± 0.0013	1.41508 ± 0.0013
x1 = 0.7945	1.43174 ± 0.0013	1.42886 ± 0.0013	1.42604 ± 0.0013	1.42323 ± 0.0013	1.4204 ± 0.0013	1.41758 ± 0.0013
x1 = 0.8421	1.4325 ± 0.0013	1.42963 ± 0.0013	1.4268 ± 0.0013	1.42398 ± 0.0013	1.42115 ± 0.0013	1.41838 ± 0.0013
x1 = 0.8988	1.43378 ± 0.0013	1.43096 ± 0.0013	1.42815 ± 0.0013	1.42533 ± 0.0013	1.42258 ± 0.0013	1.41984 ± 0.0013
x1 = 1	1.43599 ± 0.0013	1.43322 ± 0.0013	1.4304 ± 0.0013	1.42767 ± 0.0013	1.42494 ± 0.0013	1.42222 ± 0.0013
